Experimental data: patent US20260224577A1, “METHODS OF TREATING HEART FAILURE WITH VIBEGRON” (SUMITOMO PHARMA CO., LTD., priority 2021, published 2026)

Tested on: mice with induced myocardial infarction
Test: Post-MI chronic heart failure in mice, echocardiography
Assay type: in vivo
Text: The purpose of this experiment is to study the effect of vibegron on structural remodeling (e.g., hypertrophy and/or fibrosis) and functional remodeling (e.g, ventricular function) in mice with chronic HF after a myocardial infarction (MI). The specific aims of these studies will be to determine the dose response treatment effects on cardiac remodeling by measuring parameters of cardiac structure and function using non-invasive, invasive, morphological, and histological assessments of mice after MI.
Myocardial infarction in the mouse is a commonly used experimental model for chronic ischemic heart failure. Due to complete ligation of the left anterior descending coronary artery, there is a large left ventricular infarct that produces adverse LV remodeling and significant dysfunction within 2 weeks post-MI. There also is significant fibrosis in this model and it is robust and reproducible with low mortality due to the surgical procedure. This model has been used for over 2 decades (see, e.g., Gao, E. et al., Circulation Research, 2010; 107: 1445-1453) and has been used to test potential novel HF therapeutics (Schumacher, S. et al. Science Translational Medicine, 2015; 7: 277).
Myocardial infarction was induced in 10-12 week C57B/6 wild-type mice and after 2 weeks echo cardiograms were used to assess the MI severity in each mouse. Mice were randomized for treatment based on similarity and severity of the induced infarct. The mice were started with either vibegron or vehicle (1-3 doses) administered by continuous infusion using 2 week minipumps (Azlet Corp.) that were filled with the appropriate dose and implanted subcutaneously on the back of each animal in the region of the scapula. The minipumps were replaced with new minipumps in the same location at the 2 week time point and dosed for 4 weeks in total. Cardiac function was assessed by echocardiography (Echo) at 0, 2, 4, and 6 weeks. Some mice were subjected to terminal catheterization to measure hemodynamic pressures and adrenergic responsiveness.
Sham surgery groups treated with vehicle and highest dose of vibegron were included as controls. One group of post-MI mice treated with vehicle was also included in the study as a control. Two groupings of the 6 conditions were tested to allow for multiple replicates. There were 7 to 8 mice per condition in each group. The 2 groups studied were staggered by 3-4 weeks.
At this point, 6 experimental conditions (A-F below)×2 groups (staggered for reproducibility) were tested. Vibegron was provided in a form dissolved and delivered via an osmotic minipump placed under the skin of the mouse. The vehicle was used for negative control animals. Three (3) doses of vibegron (low, medium and high) were tested.
• A. Sham—vehicle • B. Sham—vibegron (high dose) • C. MI—vehicle • D. MI—vibegron—low dose • E. MI—vibegron—medium dose • F. MI—vibegron—high dose Group 2 (7 or 8 Mice Per Group) Repeated 3-4 Weeks after Group 1 • A. Sham—vehicle • B. Sham—vibegron (high dose) • C. MI—vehicle • D. MI—vibegron—low dose • E. MI—vibegron—medium dose • F. MI—vibegron—high dose
• 1. Day 0 (after 1-2 weeks acclimation)—pre-surgery Echo • 2. Perform LAD Ligation (MI) or Sham procedure • 3. Day 14—Echo and randomly assign groups • 4. Day 14—begin administration of vehicle and drug for 4 weeks • 5. Day 28—Echo (operator blinded to groups)—change pumps for another 2 week dosing • 6. Day 42—Echo (operator blinded to groups) • 7. Day 42—Some were used for hemodynamics and ISO dose response and all animals sacrificed. Some were used for histology and some for RNA/Protein analysis. Blood was also collected at the time of sacrifice to determine serum concentrations.
Surgical Methods: As described in Gao, E. et al., Circulation Research, 2010; 107: 1445-1453 and Schumacher, S. et al. Science Translational Medicine, 2015; 7: 277, mice were anesthetized and complete ligation of the LAD was performed through a partial thoracotomy.

[1] = MI mice, high dose (10 mg/kg), Baseline (pre-surgery)
[2] = MI mice, high dose (10 mg/kg), Week 2 (before start of dosing)
[3] = MI mice, high dose (10 mg/kg), Week 4 (2 weeks after dosing)
[4] = MI mice, high dose (10 mg/kg), Week 6 (4 weeks of treatment)
[5] = MI mice, low dose (1 mg/kg), Baseline (pre-surgery)
[6] = MI mice, low dose (1 mg/kg), Week 2 (before start of dosing)
[7] = MI mice, low dose (1 mg/kg), Week 4 (2 weeks after dosing)
[8] = MI mice, low dose (1 mg/kg), Week 6 (4 weeks of treatment)
[9] = MI mice, medium dose (3 mg/kg), Baseline (pre-surgery)
[10] = MI mice, medium dose (3 mg/kg), Week 2 (before start of dosing)
[11] = MI mice, medium dose (3 mg/kg), Week 4 (2 weeks after dosing)
[12] = MI mice, medium dose (3 mg/kg), Week 6 (4 weeks of treatment)
[13] = sham mice, high dose (10 mg/kg), Baseline (pre-surgery)
[14] = sham mice, high dose (10 mg/kg), Week 2 (before start of dosing)
[15] = sham mice, high dose (10 mg/kg), Week 4 (2 weeks after dosing)
[16] = sham mice, high dose (10 mg/kg), Week 6 (4 weeks of treatment)

O=C(Nc1ccc(C[C@@H]2CC[C@H]([C@H](O)c3ccccc3)N2)cc1)[C@@H]1CCc2nccc(=O)n21 [Vibegron, (6S)—N-[4-[[(2S,5R)-5-[(R)-hydroxy(phenyl)methyl]pyrrolidin-2-yl]methyl]phenyl]-4-oxo-7,8-dihydro-6H-pyrrolo[1,2-a]pyrimidine-6-carboxamide]
Average % Ejection Fraction [1]: 62.06% | Average % Fractional Shortening [1]: 32.99% | Cardiac Output [1]: 20.56 mL/min | Stroke Volume [1]: 43.30 µL | Average % Ejection Fraction [2]: 38.39% | Average % Fractional Shortening [2]: 18.91% | Cardiac Output [2]: 18.93 mL/min | Stroke Volume [2]: 40.79 µL | Average % Ejection Fraction [3]: 42.59% | Average % Fractional Shortening [3]: 21.61% | Cardiac Output [3]: 23.29 mL/min | Cardiac Output % Improvement Relative to Vehicle [3]: 37.40% | Stroke Volume [3]: 46.83 µL | Stroke Volume % Improvement Relative to Vehicle [3]: 40.84% | Average % Ejection Fraction [4]: 42.68% | Average % Fractional Shortening [4]: 21.76% | Cardiac Output [4]: 25.09 mL/min | Cardiac Output % Improvement Relative to Vehicle [4]: 61.35% | Stroke Volume [4]: 47.22 µL | Stroke Volume % Improvement Relative to Vehicle [4]: 57.87% | Average % Ejection Fraction [5]: 59.50% | Average % Fractional Shortening [5]: 31.22% | Cardiac Output [5]: 20.00 mL/min | Stroke Volume [5]: 42.74 µL | Average % Ejection Fraction [6]: 37.52% | Average % Fractional Shortening [6]: 18.44% | Cardiac Output [6]: 18.06 mL/min | Stroke Volume [6]: 39.30 µL | Average % Ejection Fraction [7]: 29.77% | Average % Fractional Shortening [7]: 14.29% | Cardiac Output [7]: 15.45 mL/min | Stroke Volume [7]: 32.76 µL | Average % Ejection Fraction [8]: 31.64% | Average % Fractional Shortening [8]: 15.21% | Cardiac Output [8]: 19.19 mL/min | Cardiac Output % Improvement Relative to Vehicle [8]: 23.40% | Stroke Volume [8]: 37.54 µL | Stroke Volume % Improvement Relative to Vehicle [8]: 25.51% | Average % Ejection Fraction [9]: 58.11% | Average % Fractional Shortening [9]: 30.07% | Cardiac Output [9]: 21.05 mL/min | Stroke Volume [9]: 44.72 µL | Average % Ejection Fraction [10]: 37.18% | Average % Fractional Shortening [10]: 18.14% | Cardiac Output [10]: 18.94 mL/min | Stroke Volume [10]: 40.37 µL | Average % Ejection Fraction [11]: 35.95% | Average % Fractional Shortening [11]: 17.57% | Cardiac Output [11]: 19.51 mL/min | Cardiac Output % Improvement Relative to Vehicle [11]: 15.10% | Stroke Volume [11]: 39.00 µL | Stroke Volume % Improvement Relative to Vehicle [11]: 17.29% | Average % Ejection Fraction [12]: 35.55% | Average % Fractional Shortening [12]: 17.36% | Cardiac Output [12]: 20.90 mL/min | Cardiac Output % Improvement Relative to Vehicle [12]: 34.41% | Stroke Volume [12]: 41.69 µL | Stroke Volume % Improvement Relative to Vehicle [12]: 39.38% | Onset of action (after initiation of treatment, as shown in the examples): ≤ 2 weeks | Adverse effects in healthy hearts (echocardiographic function versus baseline) (sham mice, high dose): no adverse effects | Average % Ejection Fraction [13]: 59.04% | Average % Fractional Shortening [13]: 30.87% | Cardiac Output [13]: 22.09 mL/min | Stroke Volume [13]: 42.25 µL | Average % Ejection Fraction [14]: 62.36% | Average % Fractional Shortening [14]: 33.26% | Cardiac Output [14]: 23.72 mL/min | Stroke Volume [14]: 45.57 µL | Average % Ejection Fraction [15]: 61.08% | Average % Fractional Shortening [15]: 32.32% | Cardiac Output [15]: 22.53 mL/min | Stroke Volume [15]: 44.44 µL | Average % Ejection Fraction [16]: 61.18% | Average % Fractional Shortening [16]: 32.45% | Cardiac Output [16]: 23.63 mL/min | Stroke Volume [16]: 45.97 µL
